Test results taken from ChEMBL document CHEMBL1145398, “Bidirectional, iterative approach to the structural delineation of the functional "chemoprint" in GPR40 for agonist recognition” (J Med Chem, 2007).

What was measured:
[1] = molecular target: Free fatty acid receptor 1 (Homo sapiens, UniProt O14842, H137F); assay: Agonist activity at human GPR40 H137F mutant expressed in HEK-EM 293 cells assessed as increase in intracellular calcium; assay type: functional, cell-based, HEK293
[2] = molecular target: Free fatty acid receptor 1 (Homo sapiens, UniProt O14842, N244A); assay: Agonist activity at human GPR40 N244A mutant expressed in HEK-EM 293 cells assessed as increase in intracellular calcium; assay type: functional, cell-based, HEK293
[3] = molecular target: Free fatty acid receptor 1 (Homo sapiens, UniProt O14842, H86F); assay: Agonist activity at human GPR40 H86F mutant expressed in HEK-EM 293 cells assessed as increase in intracellular calcium; assay type: functional, cell-based, HEK293
[4] = test system: Free fatty acid receptor 1 (Homo sapiens), O14842 [R183A]; assay: Agonist activity at human GPR40 R183A mutant expressed in HEK-EM 293 cells assessed as effect on intracellular calcium relative to wild type; assay type: functional, cell-based; conditions: HEK293
[5] = test system: Free fatty acid receptor 1 (Homo sapiens), O14842 [R258K]; assay: Agonist activity at human GPR40 R258K mutant expressed in HEK-EM 293 cells assessed as effect on intracellular calcium relative to wild type; assay type: functional, cell-based; conditions: HEK293
[6] = test system: Free fatty acid receptor 1 (Homo sapiens), O14842 [V237F]; assay: Agonist activity at human GPR40 V237F mutant expressed in HEK-EM 293 cells assessed as increase in intracellular calcium; assay type: functional, cell-based; conditions: HEK293
[7] = molecular target: Free fatty acid receptor 1 (Homo sapiens, UniProt O14842, H137A); assay: Agonist activity at human GPR40 H137A mutant expressed in HEK-EM 293 cells assessed as increase in intracellular calcium; assay type: functional, cell-based, HEK293
[8] = molecular target: Free fatty acid receptor 1 (Homo sapiens, UniProt O14842); assay: Agonist activity at human GPR40 expressed in HEK-EM 293 cells assessed as increase in intracellular calcium; assay type: functional, cell-based, HEK293
[9] = molecular target: Free fatty acid receptor 1 (Homo sapiens, UniProt O14842, H86A); assay: Agonist activity at human GPR40 H86A mutant expressed in HEK-EM 293 cells assessed as increase in intracellular calcium; assay type: functional, cell-based, HEK293
[10] = test system: Free fatty acid receptor 1 (Homo sapiens), O14842 [R258A]; assay: Agonist activity at human GPR40 R258A mutant expressed in HEK-EM 293 cells assessed as effect on intracellular calcium relative to wild type; assay type: functional, cell-based; conditions: HEK293
Sequence of Free fatty acid receptor 1 (Homo sapiens), O14842 [R258A] (O14842 whole entry R258A): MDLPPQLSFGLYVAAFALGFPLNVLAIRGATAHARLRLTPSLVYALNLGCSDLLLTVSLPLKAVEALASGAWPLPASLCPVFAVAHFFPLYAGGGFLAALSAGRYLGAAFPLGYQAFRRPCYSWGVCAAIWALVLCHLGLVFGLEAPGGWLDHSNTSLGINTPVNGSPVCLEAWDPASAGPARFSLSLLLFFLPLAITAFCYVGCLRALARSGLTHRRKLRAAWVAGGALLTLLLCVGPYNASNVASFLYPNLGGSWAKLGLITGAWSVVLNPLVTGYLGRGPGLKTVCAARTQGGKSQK

Sequence of Free fatty acid receptor 1 (Homo sapiens, UniProt O14842) (O14842 whole entry): as the sequence (O14842 whole entry R258A) above, with A258R counted along it
Sequence of Free fatty acid receptor 1 (Homo sapiens, UniProt O14842, H86F) (O14842 whole entry H86F): as the sequence (O14842 whole entry R258A) above, with H86F, A258R counted along it
Sequence of Free fatty acid receptor 1 (Homo sapiens), O14842 [R258K] (O14842 whole entry R258K): as the sequence (O14842 whole entry R258A) above, with A258K counted along it
Sequence of Free fatty acid receptor 1 (Homo sapiens), O14842 [R183A] (O14842 whole entry R183A): as the sequence (O14842 whole entry R258A) above, with R183A, A258R counted along it
Sequence of Free fatty acid receptor 1 (Homo sapiens, UniProt O14842, H137F) (O14842 whole entry H137F): as the sequence (O14842 whole entry R258A) above, with H137F, A258R counted along it
Sequence of Free fatty acid receptor 1 (Homo sapiens, UniProt O14842, H86A) (O14842 whole entry H86A): as the sequence (O14842 whole entry R258A) above, with H86A, A258R counted along it
Sequence of Free fatty acid receptor 1 (Homo sapiens, UniProt O14842, N244A) (O14842 whole entry N244A): as the sequence (O14842 whole entry R258A) above, with N244A, A258R counted along it
Sequence of Free fatty acid receptor 1 (Homo sapiens), O14842 [V237F] (O14842 whole entry V237F): as the sequence (O14842 whole entry R258A) above, with V237F, A258R counted along it
Sequence of Free fatty acid receptor 1 (Homo sapiens, UniProt O14842, H137A) (O14842 whole entry H137A): as the sequence (O14842 whole entry R258A) above, with H137A, A258R counted along it

Q: `O=C(O)CCc1ccc(NCc2cccc(Oc3ccccc3)c2)cc1` [GW9508] was tested. Which EC50 [1] did it give?
A: The EC50 was 6800 nM.

Q: What about the EC50 [2] of the same molecule?
A: The EC50 was 17800 nM.

Q: What about the EC50 [3] of the same molecule?
A: Its EC50 is 1200 nM.

Q: What about the Fold change [4] of the same molecule?
A: Its Fold change is over 100.

Q: And the Fold change [5]?
A: Its Fold change is over 100.

Q: And the Fold change [6]?
A: Its Fold change is 1.1.

Q: What about the EC50 [7] of the same molecule?
A: The EC50 was over 30000 nM.

Q: And the EC50 [8]?
A: Its EC50 is 224 nM.

Q: And the Activity ([8]; HEK293)?
A: Its Activity is 223 nM.

Q: What about the EC50 [9] of the same molecule?
A: Its EC50 is 2200 nM.

Q: What about the Fold change [10] of the same molecule?
A: The Fold change was over 100.
